The target of the first test is human 11βHSD1 enzyme (Homo sapiens (Human), UniProt P28845). Put plainly: biochemical.
Sequence of human 11βHSD1 enzyme (P28845 whole entry): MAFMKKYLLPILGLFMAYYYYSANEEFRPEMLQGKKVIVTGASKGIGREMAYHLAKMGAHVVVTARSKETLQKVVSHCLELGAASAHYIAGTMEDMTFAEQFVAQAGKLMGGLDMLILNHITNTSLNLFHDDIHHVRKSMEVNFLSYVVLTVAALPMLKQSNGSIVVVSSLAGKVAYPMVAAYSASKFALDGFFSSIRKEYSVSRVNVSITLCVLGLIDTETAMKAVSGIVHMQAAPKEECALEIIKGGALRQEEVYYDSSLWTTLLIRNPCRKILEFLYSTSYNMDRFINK
Conditions: not given
One may read the IC50 as the concentration that inhibits the measured activity by half. In the case of `O=C(O)C[C@@H]1CCCN(c2ccc(C(=O)NC3CCCCC3)c(N3CCNCC3)n2)C1` [{(3S)-1-[5-(cyclohexylcarbamoyl)-6-(piperazin-1-yl)pyridin-2-yl]piperidin-3-yl}acetic acid], the IC50 is greater than 30 µM.

Staying with this test, now noted: read-out: % inhibition of human 11-βHSD.
For orientation: inhibition means the drop in the measured response relative to a control, in per cent. Consider `O=C(O)C[C@H]1CCN(c2ccc(C(=O)N[C@H]3C4CC5CC3C[C@@](O)(C5)C4)c(SC3CCCC3)n2)C1` [Example 95, 2-[(3R)-1-[6-cyclopentylsulfanyl-5-[((2r,5s)-5-hydroxy-2-adamantyl)carbamoyl]pyridin-2-yl]pyrrolidin-3-yl]acetic acid], for which the inhibition at 30 µM was found to be 88%. The same measure, in the same setting: the same measure for `CC(C)CCSc1nc(N2CC[C@@H](C(=O)O)C2)ccc1C(=O)N[C@H]1C2CC3CC1C[C@@](O)(C3)C2` [Example 105]: 92%. `CCCSc1nc(N2CCC[C@@H](CC(=O)O)C2)ccc1C(=O)N(C(C)C)C1CCCCC1` [Example 124, 2-[(3S)-1-[5-(cyclohexyl-propan-2-yl-carbamoyl)-6-propylsulfanyl-pyridin-2-yl]-3-piperidyl]acetic acid]: the inhibition at 30 µM was found to be 92%. The same measure, in the same setting: the result for `CSc1nc(N2CC[C@H](CC(=O)O)C2)ccc1C(=O)NC1C2CC3CC(C2)CC1C3` (stereo partly drawn) [Example 76, 2-[(3R)-1-[5-(2-adamantylcarbamoyl)-6-methylsulfanyl-pyridin-2-yl]pyrrolidin-3-yl]acetic acid] reads 87%. Turning to `O=C(O)C[C@@H]1CCCN(c2ccc(C(=O)N[C@H]3C4CC5CC3C[C@@](O)(C5)C4)c(SC3CCCC3)n2)C1` [Example 94], the inhibition at 30 µM was determined as 90%.

Turning to `CCCSc1nc(N2CCC(C3(C(=O)O)CC3)CC2)ccc1C(=O)NC1CCCCC1` [Example 50, 1-[1-[5-(cyclohexylcarbamoyl)-6-propylsulfanyl-pyridin-2-yl]-4-piperidyl]cyclopropane-1-carboxylic acid], the inhibition at 30 µM was 81%. In the case of `CCCSc1nc(N2CCC(C3(C(=O)O)CCC3)CC2)ccc1C(=O)NC1CCCCC1` [Example 49, 1-[1-[5-(cyclohexylcarbamoyl)-6-propylsulfanyl-pyridin-2-yl]-4-piperidyl]cyclobutane-1-carboxylic acid], the inhibition at 30 µM is 77%. On to `O=C(O)C[C@@H]1CCCN(c2ccc(C(=O)N3CCC(c4cccnc4)C3)c(SC3CCCC3)n2)C1` (stereo partly drawn) [Example 127, 2-[(3S)-1-[6-cyclopentylsulfanyl-5-(3-pyridin-3-ylpyrrolidine-1-carbonyl)pyridin-2-yl]-3-piperidyl]acetic acid], for which the inhibition at 30 µM came out at 96%. As to `CSc1nc(N2CC[C@@H](C(=O)O)C2)ccc1C(=O)NC1C2CC3CC(C2)CC1C3` (stereo partly drawn) [Example 77, (3R)-1-[5-(2-adamantylcarbamoyl)-6-methylsulfanyl-pyridin-2-yl]pyrrolidine-3-carboxylic acid], the inhibition at 30 µM stood at 99%.

Regarding `CCCSc1nc(N2CCC[C@@H](CC(=O)O)C2)ccc1C(=O)N1CCC(c2cccnc2)C1` (stereo partly drawn) [Example 113, 2-[(3S)-1-[6-propylsulfanyl-5-(3-pyridin-3-ylpyrrolidine-1-carbonyl)pyridin-2-yl]-3-piperidyl]acetic acid], the inhibition at 30 µM worked out at 90%.

For the compound `CCCSc1nc(N2CCC[C@@H](CC(=O)O)C2)ccc1C(=O)N1CCC(c2ccccc2C(F)(F)F)C1` (stereo partly drawn) [Example 126, 2-[(3S)-1-[6-propylsulfanyl-5-[3-[2-(trifluoromethyl)phenyl]pyrrolidine-1-carbonyl]pyridin-2-yl]-3-piperidyl]acetic acid], the inhibition at 30 µM was 87%.

As to `CCCSc1nc(N2CCC(C(=O)O)CC2)ccc1C(=O)N[C@H]1C2CC3CC1C[C@@](O)(C3)C2` [Example 84, 1-[5-[[(2r,5s)-5-hydroxy-2-adamantyl]carbamoyl]-6-propylsulfanyl-pyridin-2-yl]piperidine-4-carboxylic acid], the inhibition at 30 µM was 101%. Still for that read-out and setting: the same measure for `CCCSc1nc(Sc2ccc(C(=O)O)cc2)ccc1C(=O)NC1CCCCC1` [Example 15, 4-[5-(cyclohexylcarbamoyl)-6-propylsulfanyl-pyridin-2-yl]sulfanylbenzoic acid]: 73%; for `CCCSc1nc(Oc2ccc(CCC(=O)O)cc2)ccc1C(=O)NC1CCCCC1` [Example 18, 3-[4-[5-(cyclohexylcarbamoyl)-6-propylsulfanyl-pyridin-2-yl]oxyphenyl]propanoic acid]: 81%.

On to `CCCSc1nc(N2CCC[C@@H](CC(=O)O)C2)ccc1C(=O)N1CCC(c2cnccn2)C1` (stereo partly drawn) [Example 116, 2-[(3S)-1-[6-propylsulfanyl-5-(3-pyrazin-2-ylpyrrolidine-1-carbonyl)pyridin-2-yl]-3-piperidyl]acetic acid], for which the inhibition at 30 µM came out at 89%. As to `CCCSc1nc(N2CCCC(CCC(=O)O)C2)ccc1C(=O)NC1CCCCC1` (centres unmarked) [Example 39, 3-[1-[5-(cyclohexylcarbamoyl)-6-propylsulfanyl-pyridin-2-yl]-3-piperidyl]propanoic acid], the inhibition at 30 µM was found to be 74%. Same read-out and setting: the result for `CCCSc1nc(N2CCC(C(=O)O)C2)ccc1C(=O)N[C@H]1C2CC3CC1C[C@](OC(F)F)(C3)C2` (stereo partly drawn) [Example 185, 1-[5-[[(2r,5S)-5-(difluoromethoxy)-2-adamantyl]carbamoyl]-6-propylsulfanyl-pyridin-2-yl]pyrrolidine-3-carboxylic acid] reads 97%; that for `CCCSc1nc(N2CCOC(C(=O)O)C2)ccc1C(=O)NC1CCCCC1` (centres unmarked) [Example 51, 4-[5-(cyclohexylcarbamoyl)-6-propylsulfanyl-pyridin-2-yl]morpholine-2-carboxylic acid], 90%.

Consider `O=C(O)C[C@@H]1CCCN(c2ccc(C(=O)NC3CCCCC3)c(NCCc3ccc(Cl)cc3)n2)C1` [compound 142, 2-[(3S)-1-[6-[2-(4-chlorophenyl)ethylamino]-5-(cyclohexylcarbamoyl)pyridin-2-yl]-3-piperidyl]acetic acid], for which the inhibition at 30 µM was determined as 94%. With `CCCSc1nc(N(C)[C@H]2CC[C@H](C(=O)O)CC2)ccc1C(=O)NC1CCCCC1` [Example 11, 4-[[5-(cyclohexylcarbamoyl)-6-propylsulfanyl-pyridin-2-yl]-methyl-amino]cyclohexane-1-carboxylic acid], the inhibition at 30 µM amounted to 83%. For `CCCSc1nc(N2CCC[C@@H](CC(=O)O)C2)ccc1C(=O)N1CCC(c2ccccn2)C1` (stereo partly drawn) [Example 114, 2-[(3S)-1-[6-propylsulfanyl-5-(3-pyridin-2-ylpyrrolidine-1-carbonyl)pyridin-2-yl]-3-piperidyl]acetic acid], the inhibition at 30 µM is 101%.

Take `CCCOc1nc(N2CCC[C@@H](CC(=O)O)C2)ccc1C(=O)N[C@H]1C2CC3CC1C[C@@](O)(C3)C2` [Example 109, 2-[(3S)-1-[5-[[(2r,5s)-5-hydroxy-2-adamantyl]carbamoyl]-6-propoxy-pyridin-2-yl]-3-piperidyl]acetic acid]: the inhibition at 30 µM was determined as 88%. For `O=C(O)C[C@@H]1CCCN(c2ccc(C(=O)NC3CCCCC3)c(NCCc3ccccc3)n2)C1` [compound 152, 2-[(3S)-1-[5-(cyclohexylcarbamoyl)-6-(phenethylamino)pyridin-2-yl]-3-piperidyl]acetic acid], the inhibition at 30 µM is 81%. As for `CCCSc1nc(Sc2ccccc2C(=O)O)ccc1C(=O)NC1CCCCC1` [Example 24, 2-[5-(cyclohexylcarbamoyl)-6-propylsulfanyl-pyridin-2-yl]sulfanylbenzoic acid], the inhibition at 30 µM was 77%. On to `CCCSc1nc(N2CC[C@H](CC(=O)O)C2)ccc1C(=O)N[C@H]1C2CC3CC1C[C@@](O)(C3)C2` [Example 90, 2-[(3R)-1-[5-[[(2r,5s)-5-hydroxy-2-adamantyl]carbamoyl]-6-propylsulfanyl-pyridin-2-yl]pyrrolidin-3-yl]acetic acid], for which the inhibition at 30 µM was 88%. Still for that read-out and setting: the result for `O=C(O)C[C@@H]1CCCN(c2ccc(C(=O)N[C@H]3C4CC5CC3C[C@](OC(F)F)(C5)C4)c(SC3CCCC3)n2)C1` [Example 178, 2-[(3S)-1-[6-Cyclopentylsulfanyl-5-[[(2r,5s)-5-(difluoromethoxy)-2-adamantyl]carbamoyl]pyridin-2-yl]-3-piperidyl]acetic acid] reads 93%; that for `CCCSc1nc(N2CCC[C@@H](CC(=O)O)C2)ccc1C(=O)NC12CC3CC(CC(C3)C1)C2` [Example 172, {(3S)-1-[5-(Adamantan-1-ylcarbamoyl)-6-(Propylthio)pyridin-2-yl]piperidin-3-yl}acetic acid], 88%; that for `CCCSc1nc(Oc2cccc(C(=O)O)c2)ccc1C(=O)NC1CCCCC1` [Example 13, 3-[5-(cyclohexylcarbamoyl)-6-propylsulfanyl-pyridin-2-yl]oxybenzoic acid], 94%.

Regarding `CCCSc1nc(Sc2ccc(OCC(=O)O)cc2)ccc1C(=O)NC1CCCCC1` [Example 19, 2-[4-[5-(cyclohexylcarbamoyl)-6-propylsulfanyl-pyridin-2-yl]sulfanylphenoxy]acetic acid], the inhibition at 30 µM was 61%. For the compound `CCCSc1nc(N2CCC(C(C)C(=O)O)CC2)ccc1C(=O)NC1CCCCC1` (centres unmarked) [Example 28, 2-[1-[5-(cyclohexylcarbamoyl)-6-propylsulfanyl-pyridin-2-yl]-4-piperidyl]propanoic acid], the inhibition at 30 µM turned out to be 86%. `CCCSc1nc(N2CCN(CC(=O)O)CC2)ccc1C(=O)NC1CCCCC1` [Example 8, 2-[4-[5-(cyclohexylcarbamoyl)-6-propylsulfanyl-pyridin-2-yl]piperazin-1-yl]acetic acid]: the inhibition at 30 µM worked out at 78%. Take `O=C(NC1CCCCC1)c1ccc(N2CCCC(C3(C(=O)O)CC3)C2)nc1SC1CCCC1` (centres unmarked) [Example 56, 1-[1-[5-(cyclohexylcarbamoyl)-6-cyclopentylsulfanyl-pyridin-2-yl]-3-piperidyl]cyclopropane-1-carboxylic acid]: the inhibition at 30 µM was found to be 97%.

`O=C(O)C[C@@H]1CCCN(c2ccc(C(=O)NC3CCCCC3)c(N3CCN(c4ccccc4)CC3)n2)C1` [compound 145, 2-[(3S)-1-[5-(cyclohexylcarbamoyl)-6-(4-phenylpiperazin-1-yl)pyridin-2-yl]-3-piperidyl]acetic acid]: the inhibition at 30 µM is 84%. Consider `CCCNc1nc(N2CCC[C@@H](CC(=O)O)C2)ccc1C(=O)N(C)C1CCCCC1` [compound 157, 2-[(3S)-1-[5-(cyclohexyl-methyl-carbamoyl)-6-propylamino-pyridin-2-yl]-3-piperidyl]acetic acid], for which the inhibition at 30 µM amounted to 91%.

The record behind these values is patent US8673938B2, “Chemical compounds” (priority 2006, dated 2014).
